Measured values from patent publication US20200157145A1, “NEUTRAL-CATIONIC PEPTOIDS AND USES THEREOF” (Stealth BioTherapeutics Corp, priority 2018, published 2020).

System: isolated guinea pig heart exposed to global ischemia
Test: Cardiac ischemia-reperfusion injury in isolated perfused guinea pig heart (global no-flow ischemia 20 min, reperfusion 120 min)
Experimental: Procedures for the use of guinea pigs are in accordance with the guidelines established by the American Physiological Society. Adult male guinea pigs (200-300 g) will be anesthetized with a ketamine/xylazine cocktail (85/15 mg mL, respectively; ip delivery). Upon the absence of reflexes to ensure a deep plane of anesthesia, hearts will be excised via midline thoracotomy and immersed in ice-cold saline. Hearts will be cannulated by the aorta and perfused with a modified Krebs-Henseleit buffer containing (in mM): 118 NaCl, 24 NaHCO3, 4.75 KCl, 1.2 KH2PO4, 1.2 MgSO4, 2.0 CaCl2, and 10 glucose (gassed with 95/5% O2/CO2). Hearts will be placed in a buffer-filled perfusion chamber and maintained at 37° C. for the duration of the experiments.
Following the initiation of perfusion, hearts will be instrumented for the simultaneous observation of mechanical and electrical function. A buffer-filled latex balloon will be inserted into the left ventricle (via the mitral valve) for the measurement of left ventricular developed pressure, with balloon volume adjusted to establish an end-diastolic pressure of 5-8 mmHg. Three electrodes will be placed into the buffer-filled perfusion chamber for the measurement of volume-conducted ECG. A pre-established protocol of electrode placement will be utilized to obtain a signal analogous to Lead II of a typical 12-lead ECG. All physiological parameters will be continuously monitored and stored on a personal computer using commercially available software (Chart, AD Instruments).
After a 10-minute equilibration period, hearts will be divided into the following different treatment groups: 1. Control followed by I/R; 2. Administration of 1 nM ηArg-η2′6′-Dmt-ηLys-ηPhe-NH2 in the perfusate both before and after index ischemia; 3. Post-ischemic administration of 1 nM ηArg-η2′6′-Dmt-ηLys-ηPhe-NH2 using both a bolus dose (also 1 nM, administered immediately prior to reperfusion) and ηArg-η2′6′-Dmt-ηLys-ηPhe-NH2 in the reperfusion solution; 4. Positive control using ischemic preconditioning; 3 cycles of 5 min I/R before index ischemia).
Hearts will be exposed to global no-flow ischemia by stopping perfusion for 20 minutes. At the end of the index ischemia, static buffer from the perfusion lines will be washed out (via an accessory port proximal to the aortic cannula) and reperfusion ensued for 120 minutes. Administration of all compounds in the perfusate will be accomplished via dissolving the compound(s) in solution prior to administration. The reperfusion bolus dose will be delivered to the heart via syringe through a drug-delivery port just above the aortic cannula. At the end of the 2 h reperfusion protocol, the LV will be dissected, sliced into 5 mm-thick slices, incubated in triphenyltetrazolium chloride (TTC) for 10 minutes (37° C.), and digitally photographed for subsequent infarct size analysis. Infarct sizes are expressed as the infarcted area as a percentage of the LV (in the global ischemia model, the entire LV constitutes the zone-at-risk).

[1] = peptoid 0.01 nM, 0.1 nM, cyclosporin-A 0.2 μM

ηArg-η2′6′-Dmt-ηLys-ηPhe-NH2
Incidence of VT/VF (ventricular tachycardia and/or fibrillation) (0.01 nM/0.1 nM(30 min R)): protection against the incidence of VT/VF | Infarct size (infarcted area as a percentage of the LV) (1 nM or 0.1 nM or 0.001 nM or 0.01 nM/0.1 nM(30 min R), 20 min global ischemia, compared to control group): lower incidence of infarction (infarction size) | Baseline coronary flow rates (groups receiving 0.01 nM): slightly lower than other groups | Baseline heart rate [1]: no discernable effects | Baseline left ventricular developed pressure [1]: no discernable effects | Baseline rates of contraction/relaxation [1]: no discernable effects | Coronary flow rates (peptoid 1 nM, 0.1 nM, 0.01 nM to 0.1 nM, cyclosporin-A 0.2 uM, whole time or at reperfusion, vs control): no differences in coronary flow rates
